Assay results taken from article PMC6759624, “Unraveling Heparan Sulfate Proteoglycan Binding Motif for Cancer Cell Selectivity” (Frontiers in Oncology, 2019).
Entries after “also recorded” stand apart in the source; their conditions may differ.

Key:
glypican-4 = assay: SPR, NT4 binding to recombinant glypican-4; design: species or system human; conditions: rHSPG over immobilized NT4
Protocol: Experiments were performed on a Biacore T100 instrument (GE Healthcare). All materials were purchased from GE Healthcare unless otherwise specified. Full-length recombinant human HSPG were purchased from R&D Systems. Syndecan-3, syndecan-4, and glypican-3 were obtained from the mouse myeloma cell line (NS0), and glypican-4 was obtained from the Chinese Hamster Ovary cell line. The activity of syndecan-4, glypican-3, and glypican-4 was measured by the supplier as the ability of the immobilized protein to bind FGF-basic. The activity of syndecan-3 was measured by the supplier as the ability of the immobilized protein to inhibit adhesion of Saos-2 human osteosarcoma cells to human fibronectin.
NT4-biotin was captured on a CM5 sensor chip where streptavidin had previously been immobilized by standard amine coupling. Briefly, the sensor chip surface was activated with a mixture of 0.1 M 1-ethyl-3(3-dimethylaminopropyl)-carbodiimide (EDC) and 0.4 M N-hydroxyl succinimide (NHS) for 7 min at a flow rate of 5 μl/min. Streptavidin was injected over the surface for 7 min, and finally, 1 M ethanolamine pH 8.5 was used to block any activated carboxyl groups. […]
Kinetics were analyzed with the Biacore T100 evaluation 1.1.1 software using the 1:1 Langmuir model to fit the curves.

[1] = ref [13], [19] (b5); cited from earlier work
Description: NT4 peptides can be conjugated with different functional units and can selectively deliver drugs for cancer therapy or transport tracers for tumor imaging ([11], [12], [15]–[18]). […] NT4 transports the chemotherapeutic moiety to the cancer cell membrane and, ultimately, into the cell ([14]–[16]).

[2] = tested on: PANC-1 human pancreas adenocarcinoma; assay: NT4 binding to cells by flow cytometry; assay type: cell-based; conditions: 1 μM NT4-biotin
Protocol: (§1) PANC-1 human pancreas adenocarcinoma, HT-29 human colon adenocarcinoma, and MCF-7 and MDA-MB-231 human breast adenocarcinoma cells were grown in the recommended American Type Culture Collection (ATCC) media, supplemented with 10% fetal calf serum, 200 μg/ml glutamine, 100 μg/ml streptomycin, 60 μg/ml penicillin, and maintained at 37°C, 5% CO2. Cell lines were purchased from ATCC, and cell profiling was analyzed to authenticate human cell lines (BMR Genomics).
(§2) All experiments were performed using 2 × 10^5 cells in 96-well U-bottom plates. All dilutions were performed in phosphate-buffered saline (PBS), containing 5 mM EDTA and 1% bovine serum albumin (BSA).
(§3) Cells were incubated with 1 μM NT4-biotin for 30 min at room temperature and then incubated with 1 μg/ml streptavidin–fluorescein isothiocyanate (FITC). For heparinase treatment, cells were incubated for 1 h at 37°C on the plates with 0.03 IU/ml heparinase I/III blend (Sigma Aldrich), and then harvested and incubated with the same concentration of heparinase in suspension for an additional hour at 37°C before NT4 staining. All experiments were repeated two times. P values were calculated using a two-tailed Student t-test and GraphPad Prism 5.0 software.

[3] = tested on: HT-29 human colon adenocarcinoma; assay: NT4 binding to cells by flow cytometry; assay type: cell-based; conditions: 1 μM NT4-biotin
Protocol: as §1, §2, §3

[4] = tested on: MDA-MB-231 human breast adenocarcinoma; assay: NT4 binding to cells by flow cytometry; assay type: cell-based; conditions: heparinase I/III blend 0.03 IU/ml, 1 h + 1 h at 37°C, 1 μM NT4-biotin, 30 min, room temperature, streptavidin–FITC, repeated two times
Protocol: as §1, §2, §3

[5] = tested on: MCF-7 human breast adenocarcinoma; assay: NT4 binding to cells by flow cytometry; assay type: cell-based; conditions: heparinase I/III blend 0.03 IU/ml, 1 h + 1 h at 37°C, 1 μM NT4-biotin, 30 min, room temperature, streptavidin–FITC, repeated two times
Protocol: as §1, §2, §3

cancer cells = conditions: ref [20]; cited from earlier work
Description: NT4 is already known to have major effects on cancer cells, such as inhibition of migration and invasion of ECM induced by FGF ([20]).

- binding to glypican-4 (glypican-4): bound; also recorded: binds
Substance: (pyELYENKPRRPYIL)4K2K-beta-Ala [NT4]
- binding to heparan sulfate [1]: preferential high-affinity binding
- binding to heparin [1]: preferential high-affinity binding
- NT4 cell binding relative to other cell lines ([2]; PANC-1 (low sulfatase expression) versus MCF-7 and MDA-MB-231, flow cytometry): bind NT4 better than the others; also recorded: higher in cell lines with lower expression of sulfatases
- NT4 binding after heparinase treatment ([2]; PANC-1, heparinase I/III blend 0.03 IU/ml, 1 h + 1 h at 37°C, 30 min, room temperature, streptavidin–FITC, repeated two times): much lower than to control cells
- NT4 cell binding relative to other cell lines ([3]; HT-29 (low sulfatase expression) versus MCF-7 and MDA-MB-231, flow cytometry): bind NT4 better than the others; also recorded: higher in cell lines with lower expression of sulfatases
- NT4 binding after heparinase treatment ([3]; HT-29, heparinase I/III blend 0.03 IU/ml, 1 h + 1 h at 37°C, 30 min, room temperature, streptavidin–FITC, repeated two times): much lower than to control cells
- NT4 binding after heparinase treatment [4]: much lower than to control cells
- NT4 binding after heparinase treatment [5]: much lower than to control cells
- effect on migration and invasion of ECM induced by FGF (cancer cells): inhibition
